# Results: patent US10350188B2, “Use of Neu1 sialidase inhibitors in the treatment of cancer” (priority 2011, dated 2019)
# Columns and labels:
# [1] = biological target: T1, sialidase activity associated with TLR ligand treated live BMC-2 macrophage cells (Mus musculus, UniProt O35657); settings: 1-2 mM, compared to LPS positive control; cited from earlier work
# T1 construct: endogenous in cells; host or cells: BMC-2 macrophage cells
# Neu1 sialidase [2] = biological target: T2, Neu1 sialidase (Mus musculus, UniProt O35657); assay: LPS-induced Neu1 sialidase activity in live BMA macrophage cells (4-MUNANA); type: cell-based; parameters: endogenous in cells; host or cells: BMA macrophage cells
# Experimental: TLR-expressing BMA macrophage cells were grown on 12 mm circular glass slides in culture media containing DMEM supplemented with 10% fetal calf serum. […] Fluorescent images were taken after 2-3 minutes using epi-fluorescent microscopy (Zeiss Imager M2, 40× objective).
# This recently developed assay was used to detect sialidase activity on the surface of viable cells. […] The inhibitory potency of a series of amide-linked C9 modified DANA (2-deoxy-2,3-dehydro-D-N-acetylneuraminic add) analogues on lipopolysaccharide (LPS)-induced Neu1 sialidase activity was assessed in live BMA macrophage cells.
# Neu1 sialidase [3] = biological target: T2, Neu1 sialidase; settings: live BMA macrophage cells; clopidogrel bisulfate 280 and 500 μM pre-treatment; LPS 5 μg/mL; oseltamivir phosphate 400 μM; cited from earlier work
# carboxylesterase = carboxylesterase (Homo sapiens, UniProt P23141); settings: cited from earlier work
# MiaPaCa-2 cells = assay: Cell viability of MiaPaCa-2 pancreatic cancer cells in culture (MTT or WST-1, 72 hrs); type: cell-based, human; settings: MiaPaCa-2; for Chemo-drug LD50: MTT, 72 hrs
# PANC-1 cells = assay: Cell viability of PANC-1 pancreatic cancer cells in culture (MTT or WST-1, 72 hrs); type: cell-based, human; settings: PANC-1; for Chemo-drug LD50: MTT, 72 hrs
# BxPC-3 cells = assay: Cell viability of BxPC-3 pancreatic cancer cells in culture (MTT or WST-1, 72 hrs); type: cell-based, human; settings: BxPC-3; for Chemo-drug LD50: MTT, 72 hrs
# Capan-1 cells = assay: Cell viability of Capan-1 pancreatic metastatic cancer cells in culture (MTT or WST-1, 72 hrs); type: cell-based, human; settings: Capan-1; for Chemo-drug LD50: WST-1, 72 hrs
# Experimental: CAPAN-1 cells (ATCC® Number: HTB-79™) are human pancreatic cancer cell line with epithelial morphology expressing the 17 beta-estradiol (E2)-binding estrogen receptor and derived from metastatic liver with adenocarcinoma.
# (§1) All cells were grown at 37° C. in 5% CO2 in culture media containing Dulbecco's Modified Eagle Medium (DMEM) (Gibco, Rockville, Md.) supplemented with 10% fetal calf serum (FCS) (HyClone, Logan, Utah, USA).
# (§2) MTT is a colorimetric assay for measuring the activity of enzymes that reduce MTT or closely related dyes (XTT, MTS, WSTs) to formazan dye, giving a purple color. A main application allows the assessment of the viability (cell counting) and the proliferation of cells (cell culture assays). It can also be used to determine cytotoxicity of potential medicinal agents and toxic materials, since those agents would stimulate or inhibit cell viability and growth. MTT (3-(4,5-Dimethylthiazol-2-yl)-2,5-diphenyltetrazolium bromide, a yellow tetrazole), is reduced to purple formazan in living cells. A solubilization solution (usually either dimethyl sulfoxide, an acidified ethanol solution, or a solution of the detergent sodium dodecyl sulphate in diluted hydrochloric acid) is added to dissolve the insoluble purple formazan product into a coloured solution. The absorbance of this coloured solution can be quantified by measuring at a certain wavelength (usually between 500 and 600 nm) by a spectrophotometer. The absorption maximum is dependent on the solvent employed.
# (§3) WST-1 (Roche Applied Sciences, Montreal) is a ready-to-use substrate which measures the metabolic activity of viable cells. The WST-1 assay is nonradioactive and can be performed entirely in a microplate. It is suitable for measuring cell proliferation, cell viability or cytotoxicity. The assay is based on the reduction of WST-1 by viable cells. The reaction produces a soluble formazan salt. The procedure involves: Culturing the cells in a 96-well microplate, then incubating them with WST-1 for approx. 0.5-4 h. During this incubation period, viable cells convert WST-1 to a water-soluble formazan dye. Quantitating the formazan dye in the microplate is done with an ELISA plate reader. The absorbance directly correlates with the cell number.
# MDA MB-231 cells = assay: Cell viability of MDA MB-231 breast cancer cells in culture (MTT or WST-1, 72 hrs); type: cell-based, human; settings: MDA MB-231; for Chemo-drug LD50: WST-1, 72 hrs
# Experimental: (§4) MDA MB-231cells (ATCC® Number: HTB-26™) are human mammary gland breast adenocarcinoma derived from metastatic pleural effusion with epithelial morphology. MCF-7 (ATCC® Number: HTB-22™) are human mammary gland breast adenocarcinoma derived from metastatic pleural effusion with epithelial morphology.
# as §1, §2, §3
# MCF-7 cells = assay: Cell viability of MCF-7 breast cancer cells in culture (MTT or WST-1, 72 hrs); type: cell-based, human; settings: MCF-7; for Chemo-drug LD50: WST-1, 72 hrs
# Experimental: as §4, §1, §2, §3
# A 2780 cells = assay: Cell viability of A 2780 ovarian cancer cells in culture (MTT or WST-1, 72 hrs); type: cell-based, human; settings: A 2780; for Chemo-drug LD50: WST-1, 72 hrs
# Experimental: (§5) A-2780 cells are human ovarian cancer cell line which was established from tumor tissue from an untreated patient with adenocarcinoma. Cells grow as a monolayer and in suspension in spinner cultures.
# as §1, §2, §3
# A 2780cis cells = assay: Cell viability of A 2780cis ovarian cancer cells in culture (MTT or WST-1, 72 hrs); type: cell-based, human; settings: A 2780cis; for Chemo-drug LD50: WST-1, 72 hrs
# Experimental: as §5, §1, §2, §3
# [4] = system: PANC-1 human pancreatic cancer cells implanted in RAG1/Cγ double mutant NOD xenograft mice; assay: PANC-1 pancreatic cancer xenograft in RAG1/Cγ double mutant NOD mice; settings: for Liver metastases % Inhibition: vs untreated day 79
# Source text: An immunodeficient mouse model with a double mutation in the combining recombinase activating gene-1 or -2 (RAG1 or RAG2) and common cytokine receptor γ chain (cγ) were used as xenograft mice. […] Mice deficient in both RAG2 and cγ (RAG2−/−/cγ−/−) were generated by inter-crossing and were maintained in SPF isolators in the Animal Care Facility, Queen's University, Kingston, Ontario K7L3N6, Canada. A colony was established in the animal facility. Mice deficient in both RAG1 and cγ (RAG1^−/−×cγ^−/−) on a non-obese diabetic (NOD) genetic background were obtained from the Jackson Laboratory (Bar Harbor, Me.) and a colony was established in the animal facility. All mice were kept under sterile conditions in micro-isolators or air-filtered cages, and were provided with autoclaved food and water. […] They were used between 6 and 8 weeks of age.
# Puromycin-resistance eGFP transduced MiaPaCa-2 or PANC-1 cell clones were grown in 75 cm^2 cell culture flask at 80% confluence. The cells were resuspended into solution using TrypLE Express (Gibco) and washed with sterile saline. The cell suspension was centrifuged for 3 min at 900 rpm, and the cell pellet resuspended in sterile saline at a concentration of 5-10×10^6 cells/mL for 1-2×10^6 cells implantation into the right back flank of the mouse. Tumour measurements were taken twice a week. Tumour volumes were determined by (width square/2)×length.
# The RAG1/Cγ double mutant xenograft mouse model was implanted with 2×10^6 PANC-1 cells in 0.2 mL in the right back flank.
# Neu1 sialidase [5] = settings: NGF treated live TrkA-expressing cells; cited from earlier work
# human Neu3 sialidase = biological target: T3, human Neu3 sialidase (Homo sapiens, UniProt Q9UQ49); settings: in the micromolar range; cited from earlier work
# T3 sequence (Q9UQ49 1-428): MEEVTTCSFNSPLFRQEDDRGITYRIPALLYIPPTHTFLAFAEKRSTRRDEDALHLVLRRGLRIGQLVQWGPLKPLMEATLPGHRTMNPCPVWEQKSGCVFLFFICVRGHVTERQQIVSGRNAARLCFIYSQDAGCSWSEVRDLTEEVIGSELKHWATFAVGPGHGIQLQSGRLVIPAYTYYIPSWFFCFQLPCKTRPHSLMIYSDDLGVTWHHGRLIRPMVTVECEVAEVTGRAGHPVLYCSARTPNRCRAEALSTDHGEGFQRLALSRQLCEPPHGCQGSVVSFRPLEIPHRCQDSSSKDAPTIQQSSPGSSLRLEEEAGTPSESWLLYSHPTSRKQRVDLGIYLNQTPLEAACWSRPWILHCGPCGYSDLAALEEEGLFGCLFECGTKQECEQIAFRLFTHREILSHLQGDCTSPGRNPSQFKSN
# Neu1 sialidase [6] = biological target: T4, Neu1 sialidase (Homo sapiens, UniProt Q99519); settings: 2 mM; lysates from mature dendritic cells; cited from earlier work
# T4 construct: using lysates from mature dendritic cells; host or cells: lysates from mature dendritic cells
# Neu3 sialidase = settings: 2 mM; lysates from mature dendritic cells; cited from earlier work
# TLR4/MD2 = settings: HEK293 cells stably transfected with TLR4/MD2; cited from earlier work
# [7] = co-treatment oseltamivir phosphate 730 μM
# [8] = co-treatment oseltamivir phosphate 1460 μM
# [9] = chemo-drug alone, abraxane 0.5 mg/kg day 78, gemcitabine 30 mg/kg day […]
# [10] = day 84, Gemcitabine 30 mg/kg alone
# [11] = day 93, Gemcitabine 30 mg/kg alone
# [12] = day 112, Gemcitabine 30 mg/kg alone
# [13] = oseltamivir phosphate 2 mg/kg, alone day 90, with abraxane 0.5 day 78, with gemcitabine 30 day 110
# [14] = oseltamivir phosphate 5 mg/kg, alone day 90, with abraxane 0.5 day 90, with gemcitabine 30 day 109
# carboxylesterase, sequence (P23141 18-567): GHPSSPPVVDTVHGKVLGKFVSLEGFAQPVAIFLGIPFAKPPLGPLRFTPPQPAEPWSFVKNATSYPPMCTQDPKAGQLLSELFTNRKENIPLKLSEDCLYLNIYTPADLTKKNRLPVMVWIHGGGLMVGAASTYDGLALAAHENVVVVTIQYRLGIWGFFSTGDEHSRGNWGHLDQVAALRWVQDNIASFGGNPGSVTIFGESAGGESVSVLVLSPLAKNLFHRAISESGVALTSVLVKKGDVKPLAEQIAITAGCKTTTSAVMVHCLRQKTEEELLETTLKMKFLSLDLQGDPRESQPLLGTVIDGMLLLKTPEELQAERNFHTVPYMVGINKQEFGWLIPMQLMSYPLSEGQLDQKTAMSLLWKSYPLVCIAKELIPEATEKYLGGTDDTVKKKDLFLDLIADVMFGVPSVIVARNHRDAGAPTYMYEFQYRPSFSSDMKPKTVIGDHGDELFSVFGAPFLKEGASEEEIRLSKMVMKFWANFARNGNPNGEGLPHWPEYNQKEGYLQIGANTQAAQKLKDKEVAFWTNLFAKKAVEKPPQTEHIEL
molecule,measurement,setting,value
CCC(CC)[C@H](NC(C)=O)[C@@H]1C[C@@H](C(=O)O)C[C@H]1N=C(N)N [BCX-1827],Inhibition of LPS induced sialidase activity (in words),[1],limited effect
"CC(=O)N[C@H]1[C@H]([C@H](O)[C@H](O)CO)OC(C(=O)O)=C[C@@H]1O [DANA, 2-deoxy-2,3-dehydro-N-acetylneuraminic acid]",Inhibition of LPS induced sialidase activity (in words),[1],limited effect
same,Inhibition of Neu1 sialidase (in words),Neu1 sialidase [2],moderate inhibitor of Neu1 sialidase
COC(=O)[C@H](c1ccccc1Cl)N1CCc2sccc2C1 [clopidogrel],Effect on oseltamivir phosphate's capacity to inhibit LPS induced sialidase activity,Neu1 sialidase [3],no effect
same,Inhibition of hydrolysis of oseltamivir phosphate by carboxylesterase,carboxylesterase,≤ 90%
"Nc1ccn([C@@H]2O[C@H](CO)[C@@H](O)C2(F)F)c(=O)n1 [gemcitabine, Gemcitabine]",Chemo-drug LD50,MiaPaCa-2 cells; [7],0.78 µM
same,Chemo-drug LD50,MiaPaCa-2 cells; [8],0.078 µM
same,Chemo-drug LD50,MiaPaCa-2 cells; oseltamivir phosphate 0 μM,0.78 µM
same,Chemo-drug sensitivity with oseltamivir phosphate (fold increase),MiaPaCa-2 cells; oseltamivir phosphate 730 μM,1 fold increase
same,Chemo-drug sensitivity with oseltamivir phosphate (fold increase),MiaPaCa-2 cells; oseltamivir phosphate 1460 μM,10 fold increase
same,Chemo-drug LD50,PANC-1 cells; [7],1.6 µM
same,Chemo-drug LD50,PANC-1 cells; [8],1.5 µM
same,Chemo-drug LD50,PANC-1 cells; oseltamivir phosphate 0 μM,>26 µM
same,Chemo-drug sensitivity with oseltamivir phosphate (fold increase),PANC-1 cells; oseltamivir phosphate 730 μM,16 fold increase
same,Chemo-drug sensitivity with oseltamivir phosphate (fold increase),PANC-1 cells; oseltamivir phosphate 1460 μM,17 fold increase
same,Chemo-drug LD50,BxPC-3 cells; [7],0.78 µM
same,Chemo-drug LD50,BxPC-3 cells; [8],1 µM
same,Chemo-drug LD50,BxPC-3 cells; oseltamivir phosphate 0 μM,0.78 µM
same,Chemo-drug sensitivity with oseltamivir phosphate (fold increase),BxPC-3 cells; oseltamivir phosphate 730 μM,1 fold increase
same,Chemo-drug sensitivity with oseltamivir phosphate (fold increase),BxPC-3 cells; oseltamivir phosphate 1460 μM,0.78 fold increase
same,Chemo-drug LD50,Capan-1 cells; [7],30 µM
same,Chemo-drug LD50,Capan-1 cells; oseltamivir phosphate 0 μM,60 µM
same,Chemo-drug sensitivity with oseltamivir phosphate (fold increase),Capan-1 cells; oseltamivir phosphate 730 μM,2 fold increase
same,Chemo-drug LD50,MDA MB-231 cells; [7],40 µM
same,Chemo-drug LD50,MDA MB-231 cells; oseltamivir phosphate 0 μM,70 µM
same,Chemo-drug sensitivity with oseltamivir phosphate (fold increase),MDA MB-231 cells; oseltamivir phosphate 730 μM,2 fold increase
same,Chemo-drug LD50,MCF-7 cells; [7],40 µM
same,Chemo-drug LD50,MCF-7 cells; oseltamivir phosphate 0 μM,40 µM
same,Chemo-drug sensitivity with oseltamivir phosphate (fold increase),MCF-7 cells; oseltamivir phosphate 730 μM,1 fold increase
same,Chemo-drug LD50,A 2780 cells; [7],40 µM
same,Chemo-drug LD50,A 2780 cells; oseltamivir phosphate 0 μM,60 µM
same,Chemo-drug sensitivity with oseltamivir phosphate (fold increase),A 2780 cells; oseltamivir phosphate 730 μM,1.5 fold increase
same,Chemo-drug LD50,A 2780cis cells; [7],40 µM
same,Chemo-drug LD50,A 2780cis cells; oseltamivir phosphate 0 μM,60 µM
same,Chemo-drug sensitivity with oseltamivir phosphate (fold increase),A 2780cis cells; oseltamivir phosphate 730 μM,1.5 fold increase
same,Liver metastases (ave number of nodules),[4]; [9],12
same,"Metastases (size, mm)",[4]; [9],0.3-1.5 mm
same,Tumour volume,"[4]; day 79, chemotherapeutic alone (Abraxane 0.5 mg/kg or Gemcitabine 30 mg/kg i.p. once weekly)",200 ± 47 (5) mm^3
same,% Inhibition To untreated,"[4]; day 79, chemotherapeutic alone (Abraxane 0.5 or Gemcitabine 30 mg/kg)",86%
same,% Inhibition To untreated,"[4]; day 79, chemotherapeutic alone (Abraxane 0.5 or Gemcitabine 30 mg/kg), listed as Gemcitabine",86% (p < 0.0001)
same,% Inhibition To untreated,[4]; [10],89%
same,Tumour volume,[4]; [10],159 ± 52 (5) mm^3
same,% Inhibition To untreated,"[4]; day 84, Gemcitabine 30 mg/kg alone, listed as Gemcitabine",89% (p < 0.0001)
same,% Inhibition To untreated,[4]; [11],69%
same,Tumour volume,[4]; [11],437 ± 140 (3) mm^3
same,% Inhibition To untreated,"[4]; day 93, Gemcitabine 30 mg/kg alone, listed as Gemcitabine",69% (p < 0.0001)
same,% Inhibition To untreated,[4]; [12],63%
same,Tumour volume,[4]; [12],507 ± 357(2) mm^3
same,% Inhibition To untreated,"[4]; day 112, Gemcitabine 30 mg/kg alone, listed as Gemcitabine",63%
same,Liver metastases (ave number of nodules),"[4]; oseltamivir phosphate 2 mg/kg, alone day 90, with abraxane 0.5 mg/kg day 78, with gemcitabine 30 mg/kg day 110",10
same,"Metastases (size, mm)",[4]; [13],0.5-1.2 mm
same,Liver metastases % Inhibition,[4]; [13],76%
same,Liver metastases (ave number of nodules),"[4]; oseltamivir phosphate 5 mg/kg, alone day 90, with abraxane 0.5 mg/kg day 90, with gemcitabine 30 mg/kg day 109",8
same,"Metastases (size, mm)",[4]; [14],0.2-1.5 mm
same,Liver metastases % Inhibition,[4]; [14],81%
"CC(=O)N[C@H]1[C@H]([C@H](O)[C@H](O)CO)OC(C(=O)O)=C[C@@H]1N=C(N)N [zanamivir, 4-guanidino-Neu5Ac2en]",Inhibition of LPS induced sialidase activity (in words),[1],limited effect
same,Inhibition of Neu1 sialidase activity (in words),Neu1 sialidase [5],limited inhibitory effect
same,Inhibition of human Neu3 sialidase (in words),human Neu3 sialidase,significantly inhibited
same,Inhibition of Neu1 sialidase activity (in words),Neu1 sialidase [6],completely inhibited
same,Inhibition of Neu3 sialidase activity (in words),Neu3 sialidase,completely inhibited
"galectin-1: α-2,3-sialyl specific galectin-1",Inhibition of TLR ligand-induced NFκB responses (in words),TLR4/MD2,significantly inhibited
